Measurements from patent US9980486B2, “Herbicidal quinolines” (Syngenta Participations AG, priority 2014, dated 2018).

Columns and labels:
Assay in all cases: Experiment B1 glasshouse herbicide test, pre- and post-emergence, percentage damage
Assay type in all cases: in vivo
Conditions in all cases: evaluated after 13 days
[1] = test system: Ipomoea hederacea (IPOHE)
Procedure: (§1) Seeds of a variety of test species are sown in standard soil in pots (Lolium perenne (LOLPE), Solanum nigrum (SOLNI), Amaranthus retoflexus (AMARE), Setaria faberi (SETFA), Echinochloa crus-galli (ECHCG), Ipomoea hederacea (IPOHE)). After cultivation for one day (pre-emergence) or after 8 days cultivation (post-emergence) under controlled conditions in a glasshouse (at 24/16° C., day/night; 14 hours light; 65% humidity), the plants are sprayed with an aqueous spray solution derived from the formulation of the technical active ingredient in acetone/water (50:50) solution containing 0.5% Tween 20 (polyoxyethelyene sorbitan monolaurate, CAS RN 9005-64-5). […] The test plants are then grown in a glasshouse under controlled conditions in a glasshouse (at 24/16° C., day/night; 14 hours light; 65% humidity) and watered twice daily. After 13 days for pre and post-emergence, the test is evaluated for the percentage damage caused to the plant. The biological activities are shown in the following table on a five point scale (5=80-100%; 4=60-79%; 3=40-59%; 2=20-39%; 1=0-19%).

[2] = test system: Amaranthus retoflexus (AMARE)
Procedure: as §1

Solanum nigrum (SOLNI) = test system: Solanum nigrum (SOLNI)
Procedure: as §1

Setaria faberi (SETFA) = test system: Setaria faberi (SETFA)
Procedure: as §1

Lolium perenne (LOLPE) = test system: Lolium perenne (LOLPE)
Procedure: as §1

[3] = test system: Echinochloa crus-galli (ECHCG)
Procedure: as §1

[4] = POST Application (post-emergence, after 8 days cultivation), 1000 g/h
[5] = PRE Application (pre-emergence, after cultivation for one day), 1000 g/h
[6] = POST Application (post-emergence), applied at 250 g/ha
[7] = PRE Application (pre-emergence), applied at 250 g/ha

| SMILES | percentage damage caused to the plant, five point scale, IPOHE [1, 4] | percentage damage caused to the plant, five point scale, IPOHE [1, 5] | percentage damage caused to the plant, five point scale, AMARE [2, 4] | percentage damage caused to the plant, five point scale, AMARE [2, 5] | percentage damage caused to the plant, five point scale, SOLNI (Solanum nigrum (SOLNI); [4]) | percentage damage caused to the plant, five point scale, SOLNI (Solanum nigrum (SOLNI); [5]) | percentage damage caused to the plant, five point scale, SETFA (Setaria faberi (SETFA); [4]) | percentage damage caused to the plant, five point scale, SETFA (Setaria faberi (SETFA); [5]) | percentage damage caused to the plant, five point scale, LOLPE (Lolium perenne (LOLPE); [4]) | percentage damage caused to the plant, five point scale, LOLPE (Lolium perenne (LOLPE); [5]) | percentage damage caused to the plant, five point scale, ECHCG [3, 4] | percentage damage caused to the plant, five point scale, ECHCG [3, 5] | also measured |
| --- | --- | --- | --- | --- | --- | --- | --- | --- | --- | --- | --- | --- | --- |
| CCn1nnnc1NC(=O)c1cc2cccnc2c(-c2ccccc2)c1C(F)(F)F [Compound 1.002] | 5 (5=80-100%) | 5 (5=80-100%) | 5 (5=80-100%) | 5 (5=80-100%) | 5 (5=80-100%) | 5 (5=80-100%) | 5 (5=80-100%) | 5 (5=80-100%) | 5 (5=80-100%) | 5 (5=80-100%) | 5 (5=80-100%) | 5 (5=80-100%) |  |
| CCCn1nnnc1NC(=O)c1cc2cccnc2c(-c2ccccc2)c1C(F)(F)F [Compound 1.003] | 4 (4=60-79%) | 2 (2=20-39%) | 5 (5=80-100%) | 5 (5=80-100%) | 5 (5=80-100%) | 5 (5=80-100%) | 2 (2=20-39%) | 1 (1=0-19%) | 1 (1=0-19%) | 1 (1=0-19%) | 3 (3=40-59%) | 5 (5=80-100%) |  |
| Cn1nnnc1NC(=O)c1cc2cc(F)cnc2c(-c2ccccc2)c1C(F)(F)F [Compound 1.007, 3-fluoro-N-(1-methyltetrazol-5-yl)-8-phenyl-7-(trifluoromethyl)quinoline-6-carboxamide] | 5 (5=80-100%) | 5 (5=80-100%) | 5 (5=80-100%) | 5 (5=80-100%) | 5 (5=80-100%) | 5 (5=80-100%) | 5 (5=80-100%) | 5 (5=80-100%) | 5 (5=80-100%) | 5 (5=80-100%) | 5 (5=80-100%) | 5 (5=80-100%) |  |
| COc1c(C(=O)Nc2nnnn2C)cc2cccnc2c1-c1ccccc1 [Compound 1.009, 7-methoxy-N-(1-methyltetrazol-5-yl)-8-phenyl-quinoline-6-carboxamide] | 5 (5=80-100%) | 5 (5=80-100%) | 5 (5=80-100%) | 5 (5=80-100%) | 5 (5=80-100%) | 5 (5=80-100%) | 5 (5=80-100%) | 5 (5=80-100%) | 4 (4=60-79%) | 5 (5=80-100%) | 5 (5=80-100%) | 5 (5=80-100%) |  |
| Cn1nnnc1NC(=O)c1cc2cccnc2c(-c2ccccc2)c1S(C)(=O)=O [Compound 1.010, 7-METHYLSULFONYL-N-(1-METHYLTETRAZOL-5-YL)-8-PHENYL-QUINOLINE-6-CARBOXAMIDE] |  |  |  |  |  |  |  |  |  |  |  |  | percentage damage caused to the plant, five point scale, IPOHE [1, 6]: 5 (5=80-100%); percentage damage caused to the plant, five point scale, IPOHE [1, 7]: 4 (4=60-79%); percentage damage caused to the plant, five point scale, AMARE [2, 6]: 5 (5=80-100%); percentage damage caused to the plant, five point scale, AMARE [2, 7]: 5 (5=80-100%); percentage damage caused to the plant, five point scale, SOLNI (Solanum nigrum (SOLNI); [6]): 5 (5=80-100%); percentage damage caused to the plant, five point scale, SOLNI (Solanum nigrum (SOLNI); [7]): 5 (5=80-100%); percentage damage caused to the plant, five point scale, SETFA (Setaria faberi (SETFA); [6]): 5 (5=80-100%); percentage damage caused to the plant, five point scale, SETFA (Setaria faberi (SETFA); [7]): 2 (2=20-39%); percentage damage caused to the plant, five point scale, LOLPE (Lolium perenne (LOLPE); [6]): 4 (4=60-79%); percentage damage caused to the plant, five point scale, LOLPE (Lolium perenne (LOLPE); [7]): 2 (2=20-39%); percentage damage caused to the plant, five point scale, ECHCG [3, 6]: 5 (5=80-100%); percentage damage caused to the plant, five point scale, ECHCG [3, 7]: 5 (5=80-100%) |
| Cn1nnnc1NC(=O)c1cc2cccnc2c(-c2ccccc2)c1Cl [Compound 1.011, 7-chloro-N-(1-methyltetrazol-5-yl)-8-phenyl-quinoline-6-carboxamide] | 5 (5=80-100%) | 5 (5=80-100%) | 5 (5=80-100%) | 5 (5=80-100%) | 5 (5=80-100%) | 5 (5=80-100%) | 5 (5=80-100%) | 5 (5=80-100%) | 5 (5=80-100%) | 5 (5=80-100%) | 5 (5=80-100%) | 5 (5=80-100%) |  |
| Cc1ccc(-c2c(C(F)(F)F)c(C(=O)Nc3nnnn3C)cc3cccnc23)cc1 [Compound 1.017] | 5 (5=80-100%) | 5 (5=80-100%) | 5 (5=80-100%) | 5 (5=80-100%) | 5 (5=80-100%) | 5 (5=80-100%) | 5 (5=80-100%) | 5 (5=80-100%) | 4 (4=60-79%) | 4 (4=60-79%) | 5 (5=80-100%) | 5 (5=80-100%) |  |
| CSc1ccc(-c2c(C)c(C(=O)Nc3nnnn3C)cc3cccnc23)cc1 [Compound 1.030, 7-methyl-8-(4-methylsulfanylphenyl)-N-(1-methyltetrazol-5-yl)quinoline-6-carboxamide] | 5 (5=80-100%) | 4 (4=60-79%) | 5 (5=80-100%) | 5 (5=80-100%) | 5 (5=80-100%) | 5 (5=80-100%) | 5 (5=80-100%) | 5 (5=80-100%) | 4 (4=60-79%) | 4 (4=60-79%) | 5 (5=80-100%) | 5 (5=80-100%) |  |
| Cc1c(C(=O)Nc2nnnn2C)cc2cccnc2c1-c1ccc(S(C)(=O)=O)cc1 [Compound 1.031, 7-methyl-8-(4-methylsulfonylphenyl)-N-(1-methyltetrazol-5-yl)quinoline-6-carboxamide] | 5 (5=80-100%) | 5 (5=80-100%) | 5 (5=80-100%) | 5 (5=80-100%) | 5 (5=80-100%) | 5 (5=80-100%) | 5 (5=80-100%) | 5 (5=80-100%) | 5 (5=80-100%) | 5 (5=80-100%) | 5 (5=80-100%) | 5 (5=80-100%) |  |
| CSc1c(C(=O)Nc2nnnn2C)cc2cccnc2c1-c1ccccc1 [Compound 1.032, 7-methylsulfanyl-N-(1-methyltetrazol-5-yl)-8-phenyl-quinoline-6-carboxamide] | 5 (5=80-100%) | 5 (5=80-100%) | 5 (5=80-100%) | 5 (5=80-100%) | 5 (5=80-100%) | 5 (5=80-100%) | 5 (5=80-100%) | 5 (5=80-100%) | 5 (5=80-100%) | 5 (5=80-100%) | 5 (5=80-100%) | 5 (5=80-100%) |  |
